Results as given in article PMC5041959, “A high-content EMT screen identifies multiple receptor tyrosine kinase inhibitors with activity on TGFβ receptor” (Oncotarget, 2016).
Like-named read-outs stand apart in the source and are kept apart here.

Key:
FGFR3 = FGFR3 (Homo sapiens, UniProt P22607); experiment: Biochemical kinase profiling (33PanQinase radiometric assay)
TGFBR2 = TGFBR2 (Homo sapiens, UniProt P37173); experiment: as above
ROCK2 = ROCK2 (Homo sapiens, UniProt O75116); experiment: as above
NMuMG cells = experiment: High-content microscopy EMT screen in TGFβ-treated NMuMG cells (FA, SF, FN, cell count); assay type: cell-based, murine; conditions: for Emax (maximal effect on cell count): compared to reference 10 μM SB-431542 = 100%; for Emax: read-out: Emax (maximal effect on cell count)
TGFBR1 = target: T1, TGFBR1 (Homo sapiens, UniProt P36897); experiment: Biochemical kinase profiling (33PanQinase radiometric assay)
T1 sequence (P36897 34-503): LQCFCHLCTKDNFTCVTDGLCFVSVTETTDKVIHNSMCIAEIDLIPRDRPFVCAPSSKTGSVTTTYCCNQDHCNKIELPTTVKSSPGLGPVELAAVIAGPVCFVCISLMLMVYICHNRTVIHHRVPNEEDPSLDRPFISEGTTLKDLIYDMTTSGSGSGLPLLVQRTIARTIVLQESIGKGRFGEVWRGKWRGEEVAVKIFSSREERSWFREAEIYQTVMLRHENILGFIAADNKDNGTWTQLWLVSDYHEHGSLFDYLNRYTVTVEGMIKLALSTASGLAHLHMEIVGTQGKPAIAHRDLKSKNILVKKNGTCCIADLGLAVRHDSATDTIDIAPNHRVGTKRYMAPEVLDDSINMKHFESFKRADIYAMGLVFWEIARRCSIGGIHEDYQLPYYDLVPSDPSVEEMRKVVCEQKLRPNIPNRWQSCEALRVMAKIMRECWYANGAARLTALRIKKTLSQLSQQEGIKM

SRC = SRC (Homo sapiens, UniProt P12931); experiment: as above
ROCK = ROCK cellular assay (MLC Thr18/Ser19 phosphorylation ELISA in A7r5 cells); assay type: cell-based, rat; conditions: 90 min compound
ROCK1 = ROCK1 (Homo sapiens, UniProt Q13464); experiment: Biochemical kinase profiling (33PanQinase radiometric assay)
FGFR1 = FGFR1 (Homo sapiens, UniProt P11362); experiment: as above
PDGFRB = PDGFRB (Homo sapiens, UniProt P09619); experiment: as above
EGFR = EGFR (Homo sapiens, UniProt P00533); experiment: as above
FGFR4 = FGFR4 (Homo sapiens, UniProt P22455); experiment: as above
FGFR2 = FGFR2 (Homo sapiens, UniProt P21802); experiment: as above
PDGFRA = PDGFRA (Homo sapiens, UniProt P16234); experiment: as above
Py2T cells = experiment: High-content microscopy EMT assay in TGFβ-treated Py2T breast cancer cells; assay type: cell-based, murine; conditions: Py2T; for Emax (maximal effect on cell count): compared to reference 10 μM SB-431542 = 100%
[1] = tested on: SMAD3 phosphorylation (TGFBR activity); experiment: Quantification of SMAD3 phosphorylation in TGFβ-treated NMuMG cells (immunoblot, LI-COR); assay type: cell-based, murine; conditions: one day TGFβ plus inhibitor
Procedure: NMuMG cells plated the day before were treated for one day with TGFβ and DMSO or an inhibitor as described in the figure legends. Cells were washed with PBS and lyzed in RIPA buffer (150 mM NaCl, 2 mM MgCl, 2 mM CaCl2, 0.5% Na-deoxycholate, 10% glycerol, 1% NP-40, 0.1% SDS, 50 mM Tris pH8 supplementary with 1 mM DTT, 10 mM NaF, 1 mM sodium orthovanadate and protease inhibitor cocktail (Roche)). The proteins were resolved using SDS-PAGE and transferred to PVDF membrane. For quantitative analysis of SMAD phosphorylation, the membrane was probed with p-SMAD2/3 and GAPDH specific primary antibodies followed by fluorescent secondary antibodies (LI-COR Biosciences). The signal was captured and quantified with the Odyssey CLx Imaging system and ImageJ software form 3 independent experiments.

[2] = Mus musculus, 96 h, NMuMG, TGFβ1 2 ng/ml plus compound, 4 days, parameter decreased by 50%, read-out: FN IC50 (fibronectin patch formation)
[3] = Mus musculus, 96 h, NMuMG, TGFβ1 2 ng/ml plus compound, 4 days, parameter decreased by 50%, read-out: SF IC50 (stress fibers)
[4] = Mus musculus, NMuMG, cell count decreased by 50% compared to DMSO control, read-out: Tox IC50
[5] = NMuMG, TGFβ1 2 ng/ml plus compound, 4 days, parameter decreased by 50%
[6] = Mus musculus, read-out: CCI IC50 (cell count increase)
[7] = Mus musculus, cell count decreased by 50% compared to DMSO control, read-out: Tox IC50
[8] = read-out: FGFR3 IC50, ATP at apparent Km
[9] = read-out: TGFBR2 IC50, ATP at apparent Km
[10] = read-out: ROCK2 IC50, ATP at apparent Km
[11] = NMuMG, TGFβ1 2 ng/ml plus compound, 4 days, parameter decreased by 50%, read-out: FA IC50 (focal adhesion formation)
[12] = NMuMG, TGFβ1 2 ng/ml plus compound, 4 days, parameter decreased by 50%, read-out: FN IC50 (fibronectin patch formation)
[13] = NMuMG, TGFβ1 2 ng/ml plus compound, 4 days, parameter decreased by 50%, read-out: SF IC50 (stress fibers)
[14] = NMuMG, cell count decreased by 50% compared to DMSO control, read-out: Tox IC50
[15] = NMuMG, cell count increased by 50% compared to 100% with 10 μM SB-431542, read-out: CCI IC50 (cell count increase)
[16] = NMuMG, mean of IC50 values obtained for FA, SF, FN, read-out: EMT (FA/SF/FN) combined IC50
[17] = read-out: TGFBR1 IC50, ATP at apparent Km
[18] = read-out: ROCK1 IC50, ATP at apparent Km
[19] = cell count decreased by 50% compared to DMSO control, read-out: Tox IC50
[20] = compared to 10 μM SB-431542, read-out: CCI IC50 (cell count increase)
[21] = read-out: FGFR4 IC50, ATP at apparent Km
[22] = read-out: FGFR2 IC50, ATP at apparent Km

Chain of ROCK1 (Q13464 whole entry): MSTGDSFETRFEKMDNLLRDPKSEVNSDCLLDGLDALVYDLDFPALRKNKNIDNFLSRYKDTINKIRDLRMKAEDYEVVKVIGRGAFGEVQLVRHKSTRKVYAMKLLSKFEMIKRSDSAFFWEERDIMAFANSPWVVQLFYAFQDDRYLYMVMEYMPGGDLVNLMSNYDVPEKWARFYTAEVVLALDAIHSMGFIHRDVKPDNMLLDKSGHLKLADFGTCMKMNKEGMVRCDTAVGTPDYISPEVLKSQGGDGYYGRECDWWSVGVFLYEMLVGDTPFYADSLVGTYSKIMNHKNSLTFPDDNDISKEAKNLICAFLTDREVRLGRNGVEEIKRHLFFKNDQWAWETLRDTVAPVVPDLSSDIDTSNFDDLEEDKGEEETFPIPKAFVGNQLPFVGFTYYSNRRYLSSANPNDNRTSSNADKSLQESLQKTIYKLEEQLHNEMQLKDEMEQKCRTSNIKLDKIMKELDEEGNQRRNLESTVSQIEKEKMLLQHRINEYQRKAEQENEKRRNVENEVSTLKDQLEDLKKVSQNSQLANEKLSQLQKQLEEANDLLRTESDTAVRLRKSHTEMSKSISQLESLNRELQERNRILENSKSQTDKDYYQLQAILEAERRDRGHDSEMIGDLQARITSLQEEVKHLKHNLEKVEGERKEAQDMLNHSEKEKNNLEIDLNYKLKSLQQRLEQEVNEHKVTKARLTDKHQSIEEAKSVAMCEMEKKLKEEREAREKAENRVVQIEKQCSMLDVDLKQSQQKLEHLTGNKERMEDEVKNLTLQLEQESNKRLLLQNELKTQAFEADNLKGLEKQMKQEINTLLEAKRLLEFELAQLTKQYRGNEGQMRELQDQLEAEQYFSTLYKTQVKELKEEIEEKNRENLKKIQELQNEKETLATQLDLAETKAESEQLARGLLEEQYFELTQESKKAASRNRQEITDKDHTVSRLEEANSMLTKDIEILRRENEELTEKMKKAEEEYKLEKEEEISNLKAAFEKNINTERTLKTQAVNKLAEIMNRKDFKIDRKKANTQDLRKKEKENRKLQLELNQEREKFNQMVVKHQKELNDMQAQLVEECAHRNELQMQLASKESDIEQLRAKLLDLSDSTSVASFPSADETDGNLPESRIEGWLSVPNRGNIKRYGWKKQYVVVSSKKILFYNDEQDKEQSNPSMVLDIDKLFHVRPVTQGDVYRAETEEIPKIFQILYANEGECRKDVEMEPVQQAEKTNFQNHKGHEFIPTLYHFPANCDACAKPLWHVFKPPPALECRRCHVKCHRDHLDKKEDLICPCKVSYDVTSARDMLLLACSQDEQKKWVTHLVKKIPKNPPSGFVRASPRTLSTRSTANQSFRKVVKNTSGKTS
Chain of ROCK2 (O75116 whole entry): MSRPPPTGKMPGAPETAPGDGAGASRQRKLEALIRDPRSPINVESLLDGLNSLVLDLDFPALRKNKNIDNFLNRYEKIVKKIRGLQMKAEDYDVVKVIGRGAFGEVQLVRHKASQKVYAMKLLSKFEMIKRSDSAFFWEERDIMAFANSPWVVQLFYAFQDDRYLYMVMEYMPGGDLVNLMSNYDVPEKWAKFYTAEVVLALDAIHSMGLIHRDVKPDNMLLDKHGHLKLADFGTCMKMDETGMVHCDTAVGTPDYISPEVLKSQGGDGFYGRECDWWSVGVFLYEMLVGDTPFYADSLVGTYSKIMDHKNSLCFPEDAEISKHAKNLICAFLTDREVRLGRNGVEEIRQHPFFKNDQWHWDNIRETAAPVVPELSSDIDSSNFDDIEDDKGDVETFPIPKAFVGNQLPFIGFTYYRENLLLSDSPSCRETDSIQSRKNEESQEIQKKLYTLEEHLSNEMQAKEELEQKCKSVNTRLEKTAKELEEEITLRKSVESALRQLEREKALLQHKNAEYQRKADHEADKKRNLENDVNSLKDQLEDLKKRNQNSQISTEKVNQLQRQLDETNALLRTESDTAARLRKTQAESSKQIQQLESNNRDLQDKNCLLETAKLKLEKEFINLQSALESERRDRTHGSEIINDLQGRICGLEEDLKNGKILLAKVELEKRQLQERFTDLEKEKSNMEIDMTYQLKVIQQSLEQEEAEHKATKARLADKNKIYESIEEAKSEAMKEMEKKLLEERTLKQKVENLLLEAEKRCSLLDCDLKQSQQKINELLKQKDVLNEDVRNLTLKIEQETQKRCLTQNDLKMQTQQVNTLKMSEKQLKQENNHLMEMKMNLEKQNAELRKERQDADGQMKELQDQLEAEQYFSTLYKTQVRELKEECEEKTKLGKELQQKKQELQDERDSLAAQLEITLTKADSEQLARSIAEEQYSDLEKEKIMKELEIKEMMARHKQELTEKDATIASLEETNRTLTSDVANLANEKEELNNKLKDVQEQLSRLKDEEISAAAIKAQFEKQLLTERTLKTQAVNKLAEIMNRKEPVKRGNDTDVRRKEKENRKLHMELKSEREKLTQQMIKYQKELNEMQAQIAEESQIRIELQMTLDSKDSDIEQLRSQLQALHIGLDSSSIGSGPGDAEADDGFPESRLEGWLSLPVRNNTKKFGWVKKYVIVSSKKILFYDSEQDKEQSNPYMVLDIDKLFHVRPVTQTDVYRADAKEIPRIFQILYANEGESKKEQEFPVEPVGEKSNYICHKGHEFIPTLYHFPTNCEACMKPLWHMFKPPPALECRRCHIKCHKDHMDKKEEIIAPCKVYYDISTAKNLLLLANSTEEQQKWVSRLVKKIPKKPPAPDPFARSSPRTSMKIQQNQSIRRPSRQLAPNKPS
Chain of FGFR4 (P22455 22-802): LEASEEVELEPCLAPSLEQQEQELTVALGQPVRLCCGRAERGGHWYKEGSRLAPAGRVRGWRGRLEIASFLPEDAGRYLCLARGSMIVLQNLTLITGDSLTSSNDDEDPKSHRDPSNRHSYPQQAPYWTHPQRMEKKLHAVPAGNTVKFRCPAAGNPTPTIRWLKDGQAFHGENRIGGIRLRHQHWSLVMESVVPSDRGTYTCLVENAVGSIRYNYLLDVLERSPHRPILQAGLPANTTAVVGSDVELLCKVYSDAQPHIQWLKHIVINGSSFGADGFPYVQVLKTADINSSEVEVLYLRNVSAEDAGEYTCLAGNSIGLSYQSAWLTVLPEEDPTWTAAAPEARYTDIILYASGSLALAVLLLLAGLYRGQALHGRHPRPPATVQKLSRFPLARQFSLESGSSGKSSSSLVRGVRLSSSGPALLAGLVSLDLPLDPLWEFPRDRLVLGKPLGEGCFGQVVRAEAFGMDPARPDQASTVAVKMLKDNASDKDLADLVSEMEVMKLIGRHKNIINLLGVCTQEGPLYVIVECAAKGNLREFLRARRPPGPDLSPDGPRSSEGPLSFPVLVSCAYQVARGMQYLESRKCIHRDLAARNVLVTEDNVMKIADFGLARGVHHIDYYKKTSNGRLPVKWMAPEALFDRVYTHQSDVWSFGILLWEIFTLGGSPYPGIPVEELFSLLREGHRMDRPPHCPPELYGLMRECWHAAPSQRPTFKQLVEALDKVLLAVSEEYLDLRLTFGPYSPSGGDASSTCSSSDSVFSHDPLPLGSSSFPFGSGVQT
Chain of TGFBR2 (P37173 23-567): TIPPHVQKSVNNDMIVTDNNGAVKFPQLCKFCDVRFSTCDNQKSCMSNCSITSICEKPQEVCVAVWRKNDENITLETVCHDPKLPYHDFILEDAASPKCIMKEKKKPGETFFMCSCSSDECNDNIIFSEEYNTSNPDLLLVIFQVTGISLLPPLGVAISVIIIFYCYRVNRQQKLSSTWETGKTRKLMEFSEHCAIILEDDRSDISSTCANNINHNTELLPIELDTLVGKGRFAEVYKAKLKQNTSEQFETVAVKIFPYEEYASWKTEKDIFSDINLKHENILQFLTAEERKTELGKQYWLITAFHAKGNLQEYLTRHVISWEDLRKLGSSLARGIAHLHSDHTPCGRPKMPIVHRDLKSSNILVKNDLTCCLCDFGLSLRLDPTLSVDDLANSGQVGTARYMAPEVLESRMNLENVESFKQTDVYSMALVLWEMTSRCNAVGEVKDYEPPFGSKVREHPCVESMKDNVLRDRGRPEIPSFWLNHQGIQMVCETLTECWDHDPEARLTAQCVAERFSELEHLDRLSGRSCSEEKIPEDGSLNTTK
Chain of FGFR2 (P21802 22-821): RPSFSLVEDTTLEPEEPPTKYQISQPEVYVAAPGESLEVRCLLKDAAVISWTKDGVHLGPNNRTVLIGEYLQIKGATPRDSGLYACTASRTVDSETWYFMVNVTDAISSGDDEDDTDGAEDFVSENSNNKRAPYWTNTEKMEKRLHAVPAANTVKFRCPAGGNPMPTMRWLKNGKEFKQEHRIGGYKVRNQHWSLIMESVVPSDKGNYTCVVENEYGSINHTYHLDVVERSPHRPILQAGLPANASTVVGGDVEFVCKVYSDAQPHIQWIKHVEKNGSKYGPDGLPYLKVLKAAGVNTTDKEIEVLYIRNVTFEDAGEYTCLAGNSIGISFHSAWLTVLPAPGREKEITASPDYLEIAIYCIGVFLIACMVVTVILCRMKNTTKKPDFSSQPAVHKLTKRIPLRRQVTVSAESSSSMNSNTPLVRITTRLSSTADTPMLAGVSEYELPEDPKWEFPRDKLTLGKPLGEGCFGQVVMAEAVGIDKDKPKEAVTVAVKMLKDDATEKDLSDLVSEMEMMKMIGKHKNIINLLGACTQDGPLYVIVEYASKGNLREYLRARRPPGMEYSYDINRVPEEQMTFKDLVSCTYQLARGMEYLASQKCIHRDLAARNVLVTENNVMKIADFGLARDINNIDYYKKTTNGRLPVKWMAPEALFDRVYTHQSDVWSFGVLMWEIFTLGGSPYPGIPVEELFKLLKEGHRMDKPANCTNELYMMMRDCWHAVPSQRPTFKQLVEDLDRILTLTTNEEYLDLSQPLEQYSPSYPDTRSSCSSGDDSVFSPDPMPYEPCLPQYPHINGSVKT

| Compound | IC50 (FGFR3) | IC50 (NMuMG cells; [2]) | IC50 (NMuMG cells; [3]) | IC50 (NMuMG cells; [4]) | FA IC50 (focal adhesion formation) (NMuMG cells; [5]) | Emax (maximal effect on cell count) (NMuMG cells; NMuMG) | IC50 (TGFBR1) | IC50 (FGFR4) | IC50 (FGFR2) | IC50 (NMuMG cells; [6]) | Emax (NMuMG cells; Mus musculus) | IC50 (Py2T cells; [7]) | FA IC50 (focal adhesions) (Py2T cells; TGFβ plus compound, 4 days) | FN IC50 (fibronectin patches) (Py2T cells; TGFβ plus compound, 4 days) | SF IC50 (stress fibers) (Py2T cells; TGFβ plus compound, 4 days) | Emax (maximal effect on cell count) (Py2T cells) | SMAD3 phosphorylation (p-SMAD3/GAPDH) [1] | IC50 (FGFR3; [8]) | IC50 (TGFBR2; [9]) | IC50 (NMuMG cells; [14]) | further results |
| --- | --- | --- | --- | --- | --- | --- | --- | --- | --- | --- | --- | --- | --- | --- | --- | --- | --- | --- | --- | --- | --- |
| COCCOc1ccc2c(c1)ncn2-c1ccc2cccc(N3CCC(N)CC3)c2n1 [CP673451] | 9090 nM | 2050 nM | 2560 nM | 3590 nM | n.m. | n.m. | > 10000 nM | > 10000 nM | 1010 nM | – | – | – | – | – | – | – | – | – | – | – | IC50 (TGFBR2): > 10000 nM; IC50 (ROCK2): 1 µM; IC50 (SRC): 1070 nM; IC50 (ROCK; Rattus norvegicus, 1.5 h): 1500 nM; IC50 (ROCK1): 3.37 µM; IC50 (FGFR1): 5630 nM; IC50 (PDGFRB): 1.9 nM; IC50 (EGFR): 2120 nM; IC50 (PDGFRA): 618 nM |
| O=c1[nH]c(=O)n([C@H]2C[C@H](O)[C@@H](CO)O2)cc1I [Idoxuridine] | – | 948 nM | 1170 nM | > 25000 nM | – | – | – | – | – | 291 nM | 12.9% | 6350 nM | n.m. | n.m. | n.m. | n.m. | unchanged | – | – | – | – |
| CCN(CC)CCCCNc1ncc2cc(-c3c(Cl)cccc3Cl)c(NC(=O)NC(C)(C)C)nc2n1 [PD-161570] | – | – | – | – | – | 50.8% | – | – | – | – | – | – | n.m. | n.m. | n.m. | 43% | – | 27.2 nM | 1280 nM | 4970 nM | IC50 (ROCK2; [10]): > 10 µM; IC50 (NMuMG cells; [11]): 337 nM; IC50 (NMuMG cells; [12]): 1040 nM; IC50 (NMuMG cells; [13]): 702 nM; IC50 (NMuMG cells; [15]): 525 nM; IC50 (NMuMG cells; [16]): 694 nM; IC50 (TGFBR1; [17]): 44.9 nM; IC50 (SRC; read-out: SRC IC50, ATP at apparent Km): 5.2 nM; IC50 (ROCK1; [18]): > 10 µM; IC50 (Py2T cells; [19]): 479 nM; IC50 (Py2T cells; [20]): 232 nM; IC50 (PDGFRB; read-out: PDGFRB IC50, ATP at apparent Km): 95.8 nM; IC50 (FGFR4; [21]): 667 nM; IC50 (FGFR2; [22]): 6.5 nM; IC50 (PDGFRA; read-out: PDGFRA IC50, ATP at apparent Km): 2370 nM |
| CCN(CC)CCOc1ccc(Nc2ncc3cc(-c4c(Cl)cccc4Cl)c(=O)n(C)c3n2)cc1 [PD-166285] | 9 nM | 39 nM | 79 nM | 229 nM | – | – | 6.8 nM | 55.5 nM | 1.8 nM | 17 nM | 24% | 138 nM | n.m. | n.m. | n.m. | n.m. | – | – | – | – | IC50 (TGFBR2; TGFBR2 IC50, ATP at apparent Km): 137 nM; IC50 (NMuMG cells; Mus musculus, 96 h, NMuMG, TGFβ1 2 ng/ml plus compound, 4 days, parameter decreased by 50%, read-out: FA IC50 (focal adhesion formation)): 27 nM; IC50 (NMuMG cells; Mus musculus, NMuMG, mean of IC50 values obtained for FA, SF, FN, read-out: EMT (FA/SF/FN) combined IC50): 48.3 nM |
| COc1cc(OC)cc(-c2cc3cnc(N)nc3nc2NC(=O)NC(C)(C)C)c1 [PD-166866] | – | – | – | – | n.m. | n.m. | – | – | – | – | – | – | – | – | – | – | – | 49.3 nM | > 10000 nM | 3360 nM | IC50 (ROCK2; [10]): > 10 µM; FN IC50 (fibronectin patch formation) (NMuMG cells; [5]): n.m.; SF IC50 (stress fibers) (NMuMG cells; [5]): n.m.; CCI IC50 (cell count increase) (NMuMG cells; NMuMG, cell count increased by 50% compared to 100% with 10 μM SB-431542): n.m.; IC50 (TGFBR1; [17]): > 10000 nM; IC50 (ROCK1; [18]): > 10 µM; IC50 (FGFR1; read-out: FGFR1 IC50, ATP at apparent Km): 22.5 nM; IC50 (FGFR4; [21]): 492 nM; IC50 (FGFR2; [22]): 10.2 nM |
| C[C@@H](N)[C@H]1CC[C@H](C(=O)Nc2ccncc2)CC1.Cl.Cl [Y-27632 2HCl] | – | – | – | – | – | 17.6% | – | – | – | – | – | – | – | – | – | 43.8% | unchanged | – | – | > 25000 nM | IC50 (NMuMG cells; [11]): 2650 nM; IC50 (NMuMG cells; [12]): 1190 nM; IC50 (NMuMG cells; [13]): 1310 nM; IC50 (NMuMG cells; [15]): 1110 nM; IC50 (NMuMG cells; [16]): 1720 nM; IC50 (ROCK): 430 nM; IC50 (Py2T cells; TGFβ plus compound, 4 days, read-out: FA IC50 (focal adhesions)): 2150 nM; IC50 (Py2T cells; TGFβ plus compound, 4 days, read-out: FN IC50 (fibronectin patches)): 4830 nM; IC50 (Py2T cells; TGFβ plus compound, 4 days, read-out: SF IC50 (stress fibers)): 1710 nM; IC50 (Py2T cells; [19]): > 25000 nM; IC50 (Py2T cells; [20]): 770 nM |
